Results taken from patent publication US10696647B2, “Pharmacological treatment of obsessive-compulsive disorder” (BIOCODEX, priority 2013, dated 2020).
Values joined by “and” are separate entries in the source; they are usually repeats but may differ in a detail not shown here. Identical values can stand only once.

Key:
Format in all cases: in vivo, NMRI mice
[1] = system: marble-burying behavior in mice; assay: Marble-burying behavior in mice (model of obsessive-compulsive disorder); conditions: for number of marbles buried (at least 2/3 buried, counted after 30 min): vs vehicle; for dose at which the decrease in number of marbles buried reached significance: p<0.05 vs vehicle
Text: Marble-burying behavior in the rodent is considered to be a model of obsessive-compulsive disorder (OCD) and is commonly used to assess the activity of candidate compounds in the prevention or treatment of OCD (Ishimaru et al. (1995) Jpn. J. Pharmacol. 68:65-70; Gaikwad & Parle (2010) Asian Journal of Pharmaceutical and Clinical Research 3:101-103; Prajapati et al. (2011) Pharmacognosy Res. 3:62-66). […] In addition, because the motor behavior can interfere with the burying behavior, the effects of stripentol in the rota rod test and spontaneous locomotion have been also evaluated.
(§1) Six-week old NMRI mice (30-32 g) were purchased from Janvier breeding (Le Genest-St Isle; France). Mice were housed ten per translucent polypropylene cage (internal dimensions; 37.5 cm×37.5 cm×[…], L×W×H) under standard laboratory conditions (22±2° C., 12-h light/dark cycle, lights on at 7:00 AM) with food (AO4, SAFE, France) and tap water available ad libitum. No less than one week of rest followed their arrival. All animal procedures were carried out in accordance with the European Community council directive of 24 of Nov. 1986 (86/609/EEC) for the care and use of laboratory animals and the French government guidelines (authorization C60-159-04—December, 2009).
Mice were habituated to the testing room at least 60 min before any behavioural evaluation. All tests took place between 9:00 AM and 3:00 PM unless otherwise stated. The behavioural tests were performed by different well-trained experimenters who were kept unaware of the treatment administered. All experiments were performed in a randomized manner.
The marble-burying behavior of mice was conducted according to the methodology of Njung'e and Handley (1991) Pharmacol Biochem Behav 1991; 38: 63-67. Briefly, each mouse was placed individually in a polycarbonate cage (Type S-River; 26.5×16×14 cm height) containing 20 clean glass marbles of diameter 1.5 cm evenly spaced on 5 cm deep sawdust. The cage-lid was a metal grid. No food or water was present. The marbles were cleaned with an alcohol solution (10%; v/v) between each animal. The number of marbles at least ⅔ buried was counted 30 min later.
These compounds were administered under a volume of 0.1 ml/10 g of body weight. Control animals received an equivalent volume of vehicle.
All data are expressed as mean±SEM. The number of marble buried, locomotor activity and the time spent on the rot rod were analyzed by one-way analyse of variance (ANOVA) or the Kruskall Wallis procedure followed post-hoc by the Dunnett's test or Dunn's method respectively to locate the differences between the treated groups and the vehicle group. Differences were considered statistically significant when p<0.05. Statistical tests were run using SigmaStat v3.5 (SPSS, inc, Chicago, Ill., USA).

spontaneous locomotion = assay: Spontaneous locomotor activity (distance travelled, rearings); conditions: up to 200 mg/kg i.p.; measured for 30 min
Method: as §1, with “2009). […]” for “2009).”
Testing occurred in a quiet room under a light level of approximately 400 lux. […] Locomotor activity and rearing were measured by vibrations analysis and the interruption of infra-red beams respectively (ActiV-Meter; Software BIO-ACTIV; Bioseb-Vitrolles-France). The distance travelled (in cm) and the number of rearings were measured for 30 min. […]
(§2) All data are expressed as mean±SEM. The number of marble buried, locomotor activity and the time spent on the rot rod were analyzed by one-way analyse of variance (ANOVA) or the Kruskall Wallis procedure followed post-hoc by the Dunnett's test or Dunn's method respectively to locate the differences between the treated groups and the vehicle group. […]

rotarod performance time = assay: Rotarod test (motor performance and coordination); conditions: doses up to 200 mg/kg i.p.; 16 rpm, up to 120 s
Method: as §1
Mice were habituated to the testing room at least 60 min before any behavioural evaluation. […]
The rotarod test was performed in accordance with the teachings of Kohara et al. (2005) J Pharmacol Exp Ther 2005; 315: 163-169. […] In the drug evaluation session, rotarod performance time was measured three times, up to 120 s, and the mean was adopted as the performance time for each animal. […]
as §2

SMILES	number of marbles buried (at least 2/3 buried, counted after 30 min) ([1]; clomipramine 5-20 mg/kg i.p. 30 min before testing, H(3)=20.412, p<0.001)	dose at which the decrease in number of marbles buried reached significance ([1]; clomipramine i.p. 30 min before testing)	number of marbles buried (at least 2/3 buried, counted after 30 min) ([1]; stiripentol 100-200 mg/kg i.p. 60 min before testing, F(3.42)=5.425, p=0.003)	dose at which the decrease in number of marbles buried reached significance ([1]; stiripentol i.p. 60 min before testing) [mg/kg]	distance travelled (spontaneous locomotion)	number of rearings (spontaneous locomotion)	time spent on the rota rod (rotarod performance time)
CN(C)CCCN1c2ccccc2CCc2ccc(Cl)cc21 [clomipramine]	significantly reduced the number of marbles buried	10 mg/kg and 20 mg/kg	–	–	–	–	–
CC(C)(C)C(O)/C=C/c1ccc2c(c1)OCO2 (racemic) [stiripentol]	–	–	dose-dependently decreased the number of marbles buried	200	did not significantly modify the distance travelled	did not significantly impair the number of rearings	without any significant effect
